Laboratory results from patent US8445510B2, “Fused bicyclic kinase inhibitors” (OSI Pharmaceuticals, LLC, priority 2011, dated 2013).

Tests used:
Type in all cases: cell-based
Karpas-299 cells = test: Karpas-299 cell proliferation assay (CellTiter-Glo); settings: Homo sapiens, 72 h; Karpas-299 cell line (NPM-ALK); 3 days incubation; at least duplicate experiments; read-out: Prolif. IC50
Aurora B = target: T1, Aurora B (Homo sapiens, UniProt Q96GD4); test: Aurora B cell mechanistic assay (HT-29), phospho-Histone H3 (Ser10) ELISA; settings: HT-29 cell line; inhibition of phospho-Histone H3 (Ser10); at least duplicate experiments (italicized if single experiment); read-out: Aurora B mech IC50
T1 construct: HT-29 cells grown in complete growth media
T1 sequence (Q96GD4 whole entry): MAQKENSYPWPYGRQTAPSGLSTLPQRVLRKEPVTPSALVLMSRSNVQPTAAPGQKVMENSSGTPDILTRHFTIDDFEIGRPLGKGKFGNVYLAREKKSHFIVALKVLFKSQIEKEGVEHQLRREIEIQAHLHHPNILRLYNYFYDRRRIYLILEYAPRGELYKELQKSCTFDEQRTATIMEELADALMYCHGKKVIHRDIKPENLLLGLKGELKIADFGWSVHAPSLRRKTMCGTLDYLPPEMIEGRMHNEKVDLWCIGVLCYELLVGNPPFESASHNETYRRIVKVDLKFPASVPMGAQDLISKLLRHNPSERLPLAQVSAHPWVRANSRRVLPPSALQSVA
Protocol: The cellular activity of the compounds of the present invention against Aurora B may be determined by the following procedure. HT-29 cells grown in complete growth media (McCoy's 5A, 10% FCS, 1% L-glutamine) were plated into wells of a 96 well tissue culture plate (Falcon 3072) at a cell density of 4×10^4 cells/0.09 ml media/well. Cells were subsequently incubated overnight in a 5% CO2 humidified 37° C. incubator. The following day 10 μl of a 10× stock of test compound serially diluted in media was added to the cells and incubated for 1 h at 37° C. at which time Calyculin A (Cell Signaling #9902) was added at a concentration of 100 nM and cells incubated for an additional 30 minutes in a 5% CO2 humidified 37° C. incubator. Media was then aspirated and cells lysed using a Triton based lysis buffer. Lysates were transferred to a pre-coated anti-Histone H3 antibody coated plate supplied by Cell Signaling in their PathScan phospho-Histone H3 (Ser10) ELISA kit (#7155). After an overnight incubation with lysate the ELISA was continued following the manufacturer's instructions. Signal was measured on a Wallac Victor plate reader at 450 nm. DMSO control treated cells served as 100% signal and an Aurora B kinase inhibitor served as 100% inhibition. The percent inhibition of phospho-Histone H3 (Ser10) was expressed as % control. IC50 values were calculated from the percent control data using a standard four-parameter model.
The IC50 values of exemplary compounds of the present invention determined in a Aurora B cell mechanistic assay using the HT-29 cell line according to the procedures described herein in at least duplicate experiments are abbreviated as follows and are shown in Table 4: A, IC50≦0.05 μM; B, 0.05 μM<IC50≦0.2 μM; C, 0.2 μM<IC50≦1 μM; D, IC50>1 μM; ND, not determined. If only data from single experiments are available, the abbreviations are italicized. The Example # of Table 4 corresponds to the compound example number as illustrated in the Examples section.

MKN45 cells = test: MKN45 cell proliferation assay (CellTiter-Glo); settings: Homo sapiens, MKN-45, 72 h; MKN45 cell line; 3 days incubation; at least duplicate experiments; read-out: Prolif. IC50
RON = target: T2, RON (Homo sapiens, UniProt Q04912); test: sfRON cell mechanistic assay (HeLa), phosphorylated RON ELISA; settings: HeLa cells transfected with sfRON; inhibition of phosphorylated RON; four hours incubation; at least duplicate experiments; read-out: sfRON mech IC50
T2 sequence (Q04912 913-1400): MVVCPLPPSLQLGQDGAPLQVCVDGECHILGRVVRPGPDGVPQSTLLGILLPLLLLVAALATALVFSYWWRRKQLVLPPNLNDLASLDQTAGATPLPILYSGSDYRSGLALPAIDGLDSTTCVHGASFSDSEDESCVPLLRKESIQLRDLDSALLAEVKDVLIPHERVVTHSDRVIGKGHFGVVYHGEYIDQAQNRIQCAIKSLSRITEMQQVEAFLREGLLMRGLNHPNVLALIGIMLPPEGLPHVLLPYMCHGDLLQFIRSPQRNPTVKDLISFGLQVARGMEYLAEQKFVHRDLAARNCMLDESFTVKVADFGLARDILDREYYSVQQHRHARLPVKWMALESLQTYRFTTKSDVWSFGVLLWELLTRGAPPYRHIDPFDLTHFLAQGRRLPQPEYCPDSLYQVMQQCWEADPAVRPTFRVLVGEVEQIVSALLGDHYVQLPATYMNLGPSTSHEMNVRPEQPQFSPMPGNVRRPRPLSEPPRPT
Outline: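 HeLa cells transiently transfected with sfRON plasmid, then exposed 4 h at 37 °C to a 6-point compound series (typically 10 μM to 3 nM, 0.5% DMSO). Phospho-RON (pY1238/1239) in lysates measured by sandwich ELISA with luminescence. IC50 from 4-parameter fit of percent-of-DMSO-control data, at least duplicate runs.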

Row | SMILES | IC50 (Karpas-299 cells) | IC50 (Aurora B) | IC50 (MKN45 cells) | IC50 (RON)
1 | COc1ccc(F)c(Cl)c1[C@@H](C)c1c[nH]c2ncc(-c3cnn(C)c3Cl)cc12 [Example 59, 3-[(1S)-1-(2-Chloro-3-fluoro-6-methoxyphenyl)ethyl]-5-(5-chloro-1-methyl-1H-pyrazol-4-yl)-1H-pyrrolo[2,3-b]pyridine] | 0.2 to 1 µM | > 1 µM |  | > 1 µM
2 | CCOc1ccc(F)c(Cl)c1[C@@H](C)c1c[nH]c2ncc(-c3c(C)nn(C[C@@H](O)CO)c3C)cc12 [Example 101, (2R)-3-(4-{3-[(1S)-1-(2-Chloro-6-ethoxy-3-fluorophenyl)ethyl]-1H-pyrrolo[2,3-b]pyridin-5-yl}-3,5-dimethyl-1H-pyrazol-1-yl)propane-1,2-diol] | ≤ 0.05 µM | > 1 µM | ≤ 0.05 µM | 
3 | Cc1c(-c2cnc3[nH]cc([C@H](C)c4c(OC[C@@H](O)CO)ccc(F)c4Cl)c3c2)cnn1C [Example 68, (2S)-3-(3-Chloro-2-{(1S)-1-[5-(1,5-dimethyl-1H-pyrazol-4-yl)-1H-pyrrolo[2,3-b]pyridin-3-yl]ethyl}-4-fluorophenoxy)propane-1,2-diol] | 0.2 to 1 µM | > 1 µM | > 1 µM | 
4 | COc1ccc(F)c(Cl)c1[C@@H](C)c1c[nH]c2ncc(-c3cn(C[C@H](O)CO)nc3C)cc12 [Example 9, (2S)-3-(4-{3-[(1S)-1-(2-Chloro-3-fluoro-6-methoxyphenyl)ethyl]-1H-pyrrolo[2,3-b]pyridin-5-yl}-3-methyl-1H-pyrazol-1-yl)propane-1,2-diol] | ≤ 0.05 µM | 0.2 to 1 µM | ≤ 0.05 µM | 
5 | Cc1c(-c2cnc3[nH]cc([C@H](C)c4c(OC[C@H](O)CO)ccc(F)c4Cl)c3c2)cnn1C [Example 127, (2R)-3-(3-Chloro-2-{(1S)-1-[5-(1,5-dimethyl-1H-pyrazol-4-yl)-1H-pyrrolo[2,3-b]pyridin-3-yl]ethyl}-4-fluorophenoxy)propane-1,2-diol] | 0.2 to 1 µM | > 1 µM | > 1 µM | 

Results, then the compound that gave them:

Row | IC50 (Karpas-299 cells) | IC50 (Aurora B) | IC50 (MKN45 cells) | IC50 (RON) | SMILES
6 | 0.2 to 1 µM | > 1 µM | 0.2 to 1 µM |  | COc1ccc(F)c(Cl)c1[C@@H](C)c1c[nH]c2ncc(-c3cn(CC(C)(C)O)nc3C(F)(F)F)cc12 [Example 30, 1-[4-{3-[(1S)-1-(2-Chloro-3-fluoro-6-methoxyphenyl)ethyl]-1H-pyrrolo[2,3-b]pyridin-5-yl}-3-(trifluoromethyl)-1H-pyrazol-1-yl]-2-methylpropan-2-ol]
7 | > 1 µM | > 1 µM | > 1 µM |  | COc1ccc(F)c(Cl)c1[C@@H](C)c1c[nH]c2ncc(-c3cn(C)nc3C(F)(F)F)cc12 [Example 29, 3-[(1S)-1-(2-Chloro-3-fluoro-6-methoxyphenyl)ethyl]-5-[1-methyl-3-(trifluoromethyl)-1H-pyrazol-4-yl]-1H-pyrrolo[2,3-b]pyridine]
